Source: patent publication US20240209053A1 (Protagonist Therapeutics, Inc., priority 2021, published 2024)
pIC50: −log10 of the molar value. Numbered stars: 1 amine (or outer) side, 2 acyl side, 3 side chain; on linkers, the order of the positions; unused ones are H or OH. Bridge positions count the residues as written; N and C are the ends. Square brackets hold non-standard residues; d marks the D form. Side chains are listed from the residue outwards. Peptide text beside a SMILES is read from it. * marks the point of attachment. Dip = N[C@H](C(=O)O)C(c1ccccc1)c1ccccc1; Hag = O=C([C@H](CCC=[*:3])N[*:1])[*:2]; Palmitoyl = CCCCCCCCCCCCCCCC(=O)*; β3hF = N[C@H](CC(=O)O)Cc1ccccc1; Isovaleryl = CC(C)CC(=O)*; Ahx = NCCCCCC(=O)O

Columns and labels:
[1] = molecular target: T1, human ferroportin (SLC40A1) (Homo sapiens, UniProt Q9NP59); assay: FPN activity assay: internalization/degradation of ferroportin-GFP in stably transfected HEK293 cells (decrease in GFP fluorescence); type: cell-based; details: compound incubated at least 18 hours
T1 sequence (Q9NP59 1-571): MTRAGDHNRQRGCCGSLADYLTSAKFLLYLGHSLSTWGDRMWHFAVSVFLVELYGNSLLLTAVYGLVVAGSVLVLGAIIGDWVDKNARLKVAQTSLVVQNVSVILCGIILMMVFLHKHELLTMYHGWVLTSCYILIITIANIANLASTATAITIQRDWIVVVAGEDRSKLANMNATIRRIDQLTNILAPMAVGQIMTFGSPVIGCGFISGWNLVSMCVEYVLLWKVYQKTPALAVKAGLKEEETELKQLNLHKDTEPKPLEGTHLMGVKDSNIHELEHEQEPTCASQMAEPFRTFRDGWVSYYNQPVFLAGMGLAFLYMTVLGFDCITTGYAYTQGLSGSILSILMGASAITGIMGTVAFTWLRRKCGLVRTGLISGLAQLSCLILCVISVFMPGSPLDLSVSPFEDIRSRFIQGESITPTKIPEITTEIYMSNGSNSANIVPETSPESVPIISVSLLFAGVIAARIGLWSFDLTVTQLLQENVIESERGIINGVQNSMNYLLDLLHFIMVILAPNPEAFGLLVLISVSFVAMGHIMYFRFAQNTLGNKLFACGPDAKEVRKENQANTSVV
Outline: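 HEK293 cells stably expressing human ferroportin C-terminally fused to GFP were exposed to peptides for at least 18 h, at most 24 h. Internalization/degradation read as loss of GFP fluorescence; EC50 derived. Retro-inverse mini-hepcidin peptides used as control standards.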

ferroportin = molecular target: T2, ferroportin (Homo sapiens, UniProt Q9NP59); assay: T47D cell-based ferroportin internalization assay in presence of 0.5% mouse serum albumin (MSA); details: T47D cells
T2 sequence (Q9NP59 1-571): T1 sequence (Q9NP59 1-571)
Outline: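 T47D cells exposed 1 hr to peptide series (10 points from ~5 μM) premixed 30 min at room temperature with 0.5% mouse serum albumin, then 200 nM AF647-labelled ferroportin-binding peptide for 2 hr. Flow cytometry MFI of live singlets; IC50 by 4-parameter fit.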

pIC50 [1]	pIC50 (ferroportin)	SMILES
7.00 to 8.00	7.00 to 8.00	CCCCCCCCCCCCCCCC(=O)NCCCCCC(=O)NCCCC[C@H](NC(=O)C[C@H](Cc1ccccc1)NC(=O)[C@@H]1CCC=CCC[C@H](NC(=O)CC(C)C)C(=O)N[C@@H]([C@@H](C)O)C(=O)N[C@@H](Cc2c[nH]cn2)C(=O)N[C@@H](C(c2ccccc2)c2ccccc2)C(=O)N2CCC[C@H]2C(=O)N[C@@H](C)C(=O)N[C@@H]([C@@H](C)CC)C(=O)N1)C(=O)N[C@@H](C)C(N)=O [Compd 48] (Isovaleryl-[Hag]TH[Dip]PAI[Hag][β3hF]K([Ahx-Palmitoyl])A-NH2; staple 1-8)
8.00 to 9.00	7.00 to 8.00	CCCCCCCCCCCCCCCC(=O)NCCCCCC(=O)NCCCC[C@H](NC(=O)C[C@H](Cc1ccccc1)NC(=O)[C@@H]1CC=CCC[C@H](NC(=O)CC(C)C)C(=O)N[C@@H]([C@@H](C)O)C(=O)N[C@@H](Cc2c[nH]cn2)C(=O)N[C@@H](C(c2ccccc2)c2ccccc2)C(=O)N2CCC[C@H]2C(=O)N[C@@H](C)C(=O)N[C@@H]([C@@H](C)CC)C(=O)N1)C(=O)N[C@@H](CCCNC(=N)N)C(N)=O [Compd 22]
7.00 to 8.00	8.00 to 9.00	CCCCCCCCCCCCCCCC(=O)NCCCCCC(=O)NCCCC[C@H](NC(=O)C[C@H](Cc1ccccc1)NC(=O)[C@@H](CCCCN)NC(=O)[C@@H]1CCC=CCC[C@H](NC(=O)[C@@H]2CCCN2C(=O)[C@@H](NC(=O)[C@H](Cc2c[nH]cn2)NC(=O)[C@@H](NC(=O)[C@H](CCC(=O)O)NC(=O)CC(C)C)[C@@H](C)O)C(c2ccccc2)c2ccccc2)C(=O)N1)C(=O)N[C@H](CCCCN)C(N)=O [Compd 15]
8.00 to 9.00	8.00 to 9.00	CCCCCCCCCCCCCCCC(=O)NCCCCCC(=O)NCCCC[C@@H]1NC(=O)[C@H](C)NC(=O)[C@@H]2CCCN2C(=O)[C@H](C(c2ccccc2)c2ccccc2)NC(=O)[C@H](Cc2c[nH]cn2)NC(=O)[C@H]([C@@H](C)O)NC(=O)[C@@H](NC(=O)CC(C)C)CCCC=CCCC[C@@H](C(=O)N[C@H](CC(=O)N[C@H](CCCCN)C(N)=O)Cc2ccccc2)NC1=O [Compd 34]
7.00 to 8.00	7.00 to 8.00	CCCCCCCCCCCCCCCC(=O)NCCCCCC(=O)NCCCC[C@H](NC(=O)C[C@H](Cc1ccccc1)NC(=O)[C@@H]1CCCC=CCC[C@H](NC(=O)CC(C)C)C(=O)N[C@@H]([C@@H](C)O)C(=O)N[C@@H](Cc2c[nH]cn2)C(=O)N[C@@H](C(c2ccccc2)c2ccccc2)C(=O)N2CCC[C@H]2C(=O)N[C@@H](C)C(=O)N[C@@H]([C@@H](C)CC)C(=O)N1)C(=O)N[C@H](CCCCN)C(N)=O [Compd 31]
7.00 to 8.00	6.30 to 7.00	CCCCCCCCCCCCCCCC(=O)NCCCCCC(=O)NCCCC[C@H](NC(=O)C[C@H](Cc1ccccc1)NC(=O)[C@H]1CCC=CCCC[C@H](NC(=O)CC(C)C)C(=O)N[C@@H]([C@@H](C)O)C(=O)N[C@@H](Cc2c[nH]cn2)C(=O)N[C@@H](C(c2ccccc2)c2ccccc2)C(=O)N2CCC[C@H]2C(=O)N[C@@H](C)C(=O)N[C@@H]([C@@H](C)CC)C(=O)N1)C(=O)N[C@H](CCCCN)C(N)=O [Compd 78]
7.00 to 8.00	7.00 to 8.00	CC[C@H](C)[C@@H]1NC(=O)[C@H](C)NC(=O)[C@@H]2CCCN2C(=O)[C@H](C(c2ccccc2)c2ccccc2)NC(=O)[C@H](Cc2c[nH]cn2)NC(=O)[C@H]([C@@H](C)O)NC(=O)[C@@H](NC(=O)CC(C)C)CCC=CCC[C@@H](C(=O)N[C@H](CC(=O)N[C@@H](C)C(=O)N[C@H](CCCCN)C(N)=O)Cc2ccccc2)NC1=O [Compd 47] (Isovaleryl-[Hag]TH[Dip]PAI[Hag][β3hF]A[dK]-NH2; staple 1-8)
7.00 to 8.00	7.00 to 8.00	CCCCCCCCCCCCCCCC(=O)NCCCCCC(=O)NCCCC[C@H](NC(=O)C[C@H](Cc1ccccc1)NC(=O)[C@@H]1CCC=CCC[C@H](NC(=O)CC(C)C)C(=O)N[C@@H]([C@@H](C)O)C(=O)N[C@@H](Cc2c[nH]cn2)C(=O)N[C@@H](C(c2ccccc2)c2ccccc2)C(=O)N2CCC[C@H]2C(=O)N[C@@H](C)C(=O)N[C@@H](C)C(=O)N1)C(=O)N[C@H](CCCCN)C(N)=O [Compd 45] (Isovaleryl-[Hag]TH[Dip]PAA[Hag][β3hF]K([Ahx-Palmitoyl])[dK]-NH2; staple 1-8)
